From PubChem BioAssay (NCI) come the findings set out here.

Each structure is given as a SMILES string.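 In this assay, cells in 96-well plates receive the compound at five concentrations for 48 hours. Endpoints are linearly interpolated between the surrounding concentrations. At the GI50, growth is halved. TGI is the concentration that stops growth completely.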 *1 amine or outer side, *2 acyl side, *3 side chain or, on linkers, in order; H or OH if unused. Where a SMILES comes first, the peptide text is derived from it. Bridges are numbered along the chain shown (N, C = ends). Roman numbers before positions name the chains, in order. [ ]: non-standard residue; d: D form. Actinocin(9to1) = Cc1c2oc3c(C)ccc(C(=O)[*:1])c3nc-2c(C(=O)[*:2])c(N)c1=O; NMeV = CN[CH](C(=O)O)C(C)C; Sar = CNCC(=O)O

Test systems include CCRF-CEM leukemia; HCT-116 colon; HOP-62 NSCLC; M14 melanoma; NCI-H226 lung; OVCAR-3 ovarian; RPMI-8226 leukemia; SF-268 CNS; SNB-75 CNS; NCI-H522 lung; HOP-92 NSCLC.
Assay in all cases: NCI anticancer screen, dose series, 48 h

In the case of `CC(C)NCCNC(=O)c1ccccc1Nc1c(Cl)cccc1Cl`, the TGI was 27.1 µM with CCRF-CEM leukemia; 23.4 µM in the assay with HCT-116 colon; 25.4 µM in the assay with HOP-62 NSCLC; 25.1 µM with M14 melanoma; 30.1 µM in the assay on NCI-H226 lung; 26.6 µM in the assay with OVCAR-3 ovarian. For the same compound, the TGI is 16.2 µM with RPMI-8226 leukemia, 34.1 µM in the assay with SF-268 CNS and 16.3 µM in the assay on SNB-75 CNS.

For the compound `NC(=O)CC[C@H]1C(=O)N=C(N)N1C(=O)OCc1ccccc1`, the TGI with HCT-116 colon, with HOP-62 NSCLC, with NCI-H226 lung, in the assay with NCI-H522 lung, in the assay on OVCAR-3 ovarian and in the assay with RPMI-8226 leukemia was greater than 100 µM each time. Also, the TGI with SF-268 CNS and with SNB-75 CNS was greater than 100 µM each time.

Turning to `COc1ccc(C(=O)/C=C/c2ccc(OCCCOc3ccc(/C=C/C(=O)c4ccc(OC)c(OC)c4)cc3)cc2)cc1OC`, the TGI in the assay with CCRF-CEM leukemia, with HCT-116 colon, in the assay on HOP-62 NSCLC, in the assay on M14 melanoma, in the assay on NCI-H226 lung and in the assay with RPMI-8226 leukemia was greater than 100 µM in each case. For the same compound, the TGI in the assay with SF-268 CNS and with SNB-75 CNS was greater than 100 µM in each case.

As to `Nc1cc2ncnc(Nc3cccc(Br)c3)c2cn1`, the TGI is greater than 100 µM with CCRF-CEM leukemia; greater than 100 µM in the assay on HCT-116 colon; greater than 100 µM in the assay on HOP-62 NSCLC; greater than 100 µM with HOP-92 NSCLC; greater than 100 µM in the assay with M14 melanoma; 71 µM with NCI-H226 lung. Besides, the TGI in the assay with OVCAR-3 ovarian, with RPMI-8226 leukemia, in the assay with SF-268 CNS and in the assay with SNB-75 CNS was greater than 100 µM in each case.

As to `CCCCNC(=S)Nc1nc(C(=O)NNC(=S)NCc2ccccc2)cs1`, the TGI with HCT-116 colon, with HOP-62 NSCLC, with M14 melanoma, in the assay with NCI-H226 lung, in the assay with NCI-H522 lung and with OVCAR-3 ovarian was greater than 100 µM throughout. Besides, the TGI with RPMI-8226 leukemia and with SF-268 CNS was greater than 100 µM throughout.

For the compound `C/C(=C\COP(=O)(O)OP(=O)(O)O)CC/C=C(\C)CNc1ccccc1`, the TGI with CCRF-CEM leukemia is 10.3 µM; in the assay on HCT-116 colon, greater than 50 µM; with HOP-62 NSCLC it was greater than 50 µM; in the assay on M14 melanoma it was greater than 50 µM; in the assay on NCI-H226 lung, greater than 50 µM; with NCI-H522 lung, greater than 50 µM. In addition, the TGI in the assay on RPMI-8226 leukemia is 0.0403 µM; in the assay with SF-268 CNS it was greater than 50 µM; in the assay on SNB-75 CNS, greater than 50 µM.

As to `CN1C(=O)C(CCO)(C(C)(C)C)c2ccccc21` (stereo not given), the TGI in the assay on CCRF-CEM leukemia, with HCT-116 colon, in the assay on HOP-62 NSCLC, in the assay with HOP-92 NSCLC, with M14 melanoma and with NCI-H226 lung was greater than 100 µM in each case. Moreover, the TGI in the assay on OVCAR-3 ovarian, with RPMI-8226 leukemia, in the assay on SF-268 CNS and in the assay with SNB-75 CNS was greater than 100 µM in each case.

For the compound `C=C1CN=C(Nc2ccc(F)cc2F)S1`, the TGI in the assay with CCRF-CEM leukemia was 66.1 µM; with HCT-116 colon, greater than 100 µM; in the assay on HOP-62 NSCLC, greater than 100 µM; in the assay with HOP-92 NSCLC, greater than 100 µM; with RPMI-8226 leukemia, greater than 100 µM; in the assay on SF-268 CNS, greater than 100 µM. This compound also returned a TGI with SNB-75 CNS greater than 100 µM.

Take `C/C=C\C(CC(=O)NCCc1c[nH]c2ccccc12)CC(=O)OC` (stereo not given): the TGI in the assay on HCT-116 colon, in the assay on HOP-62 NSCLC, in the assay with HOP-92 NSCLC, in the assay on M14 melanoma, with NCI-H522 lung and in the assay with OVCAR-3 ovarian was greater than 100 µM in each case. The TGI with RPMI-8226 leukemia, in the assay on SF-268 CNS and in the assay on SNB-75 CNS was greater than 100 µM in each case.

As for `CCn1c(O)c(C(=O)NC(C)c2ccc([N+](=O)[O-])cc2)c(=O)n(CC)c1=S` (stereo not given), the TGI came to 11.9 µM in the assay on CCRF-CEM leukemia; 4.45 µM in the assay with HCT-116 colon; 6.54 µM in the assay with HOP-62 NSCLC; 8.48 µM with HOP-92 NSCLC; 6.04 µM with M14 melanoma; 11.9 µM with NCI-H226 lung. In addition, the TGI is 10.5 µM in the assay on OVCAR-3 ovarian, 15 µM in the assay on RPMI-8226 leukemia, 15.3 µM in the assay with SF-268 CNS and 5.34 µM in the assay with SNB-75 CNS.

`COc1ccc(C[C@H]2COC(=O)[C@@H]2Cc2ccccc2)cc1OC`: the TGI with CCRF-CEM leukemia, with HCT-116 colon, in the assay with HOP-62 NSCLC, with NCI-H226 lung, in the assay on OVCAR-3 ovarian and with RPMI-8226 leukemia was greater than 100 µM throughout.

In the case of `CN(c1ccc(Cl)cc1)S(=O)(=O)c1ccccc1`, the TGI in the assay with CCRF-CEM leukemia, in the assay with HCT-116 colon, in the assay with HOP-62 NSCLC, in the assay with M14 melanoma, in the assay with NCI-H226 lung and in the assay on NCI-H522 lung was greater than 100 µM each time. Moreover, the TGI in the assay on OVCAR-3 ovarian, in the assay with RPMI-8226 leukemia, with SF-268 CNS and in the assay with SNB-75 CNS was greater than 100 µM each time.

As to `O=C1NC(=S)N/C1=C\c1ccc(Sc2ccccc2C(=O)O)s1`, the TGI in the assay with HCT-116 colon is greater than 100 µM; with HOP-62 NSCLC it was greater than 100 µM; in the assay with NCI-H226 lung, greater than 100 µM; in the assay with NCI-H522 lung, 44.4 µM; in the assay with OVCAR-3 ovarian it was greater than 100 µM; in the assay with RPMI-8226 leukemia, greater than 100 µM. The TGI in the assay with SF-268 CNS and in the assay with SNB-75 CNS was greater than 100 µM each time.

For the compound `CCOC(=O)/C(C1=N[C@H](C(=O)OCC)CS1)=C(\O)c1ccccc1`, the TGI in the assay on CCRF-CEM leukemia, in the assay with HCT-116 colon, in the assay on HOP-62 NSCLC, in the assay with M14 melanoma, in the assay on NCI-H226 lung and with NCI-H522 lung was greater than 100 µM throughout. Also, the TGI in the assay on OVCAR-3 ovarian, with RPMI-8226 leukemia, with SF-268 CNS and with SNB-75 CNS was greater than 100 µM in each case.

Regarding `COc1ccc2c3c([nH]c2c1)-c1nc2ccccc2c(=O)n1CC3`, in the assay on CCRF-CEM leukemia, the GI50 is greater than 25 µM. Further, the TGI in the assay on CCRF-CEM leukemia, in the assay on HCT-116 colon, in the assay on HOP-62 NSCLC, in the assay on M14 melanoma, in the assay with NCI-H522 lung and in the assay with RPMI-8226 leukemia was greater than 25 µM throughout. Also, the TGI in the assay on SF-268 CNS and in the assay on SNB-75 CNS was greater than 25 µM in each case.

Consider `CC(C)CCCC(C)[C@H]1CC[C@H]2NCCCC[C@]12C` (stereo not given in full), for which the TGI in the assay on CCRF-CEM leukemia came to 4.16 µM; in the assay with HCT-116 colon, 20 µM; in the assay with HOP-62 NSCLC, 29.1 µM; in the assay on HOP-92 NSCLC it was 15.5 µM; in the assay with M14 melanoma, 4.29 µM; in the assay on NCI-H226 lung, 29 µM. Moreover, the TGI with OVCAR-3 ovarian came out at 31.7 µM; with RPMI-8226 leukemia, 4.01 µM; in the assay with SF-268 CNS, 32.2 µM; with SNB-75 CNS, 16 µM.

Turning to `O=C1c2ccccc2C2(c3ccc(Cl)cc3)N[C@@H]3CCCC[C@@H]3N12` (stereo not given in full), the TGI in the assay on CCRF-CEM leukemia, with HCT-116 colon, with HOP-62 NSCLC, with HOP-92 NSCLC, in the assay with M14 melanoma and with NCI-H226 lung was greater than 100 µM in each case. Also, the TGI in the assay with OVCAR-3 ovarian, in the assay with RPMI-8226 leukemia, in the assay with SF-268 CNS and with SNB-75 CNS was greater than 100 µM each time.

For the compound `Cc1c2oc3c(C)ccc(C(=O)NC4C(=O)NC(Cc5ccc(O)cc5)C(=O)N5CCCC5C(=O)N(C)CC(=O)N(C)C(C(C)C)C(=O)OC4C)c3nc-2c(C(=O)NC2C(=O)NC(Cc3ccc(O)cc3)C(=O)N3CCCC3C(=O)N(C)CC(=O)N(C)C(C(C)C)C(=O)OC2C)c(N)c1=O` (stereo not given) (I: TYP[Sar][NMeV] / II: TYP[Sar][NMeV]; ester I:1-I:C, II:1-II:C; linker I:N-II:N via Actinocin(9to1); configuration not given here), the TGI was greater than 100 µM in the assay with HCT-116 colon; greater than 52.2 µM in the assay with HOP-62 NSCLC; 28.9 µM with M14 melanoma; greater than 100 µM in the assay on NCI-H226 lung; 45.8 µM with NCI-H522 lung; greater than 48.1 µM in the assay on OVCAR-3 ovarian. Besides, the TGI is greater than 100 µM in the assay with RPMI-8226 leukemia, greater than 100 µM in the assay on SF-268 CNS and 20.3 µM with SNB-75 CNS.

As to `Cc1cc(=O)[nH]c(NN2C(Cl)C(=O)C2c2ccco2)n1` (stereo not given), the TGI is 45.6 µM in the assay on CCRF-CEM leukemia; greater than 100 µM in the assay on HCT-116 colon; greater than 100 µM in the assay with HOP-62 NSCLC; 69.8 µM with HOP-92 NSCLC; greater than 100 µM with M14 melanoma; 79.4 µM with OVCAR-3 ovarian. Further, the TGI with RPMI-8226 leukemia is 38.3 µM; with SF-268 CNS, greater than 100 µM; in the assay with SNB-75 CNS it was 68 µM.

As for `CC(=O)NCC1OC2COC(c3ccccc3)OC2C2N=C(c3ccccc3)OC12` (stereo not given), the TGI in the assay on CCRF-CEM leukemia, in the assay with HCT-116 colon, in the assay with HOP-62 NSCLC, in the assay with HOP-92 NSCLC, in the assay on M14 melanoma and with NCI-H226 lung was greater than 100 µM throughout. In addition, the TGI with OVCAR-3 ovarian is greater than 100 µM; in the assay on RPMI-8226 leukemia it was 89.1 µM; in the assay with SF-268 CNS, greater than 100 µM; in the assay on SNB-75 CNS, greater than 100 µM.

In the case of `Cc1cccc(=O)c([O-])c1.Cc1cccc(=O)c([O-])c1.Cc1cccc(=O)c([O-])c1.Cc1cccc(=O)c([O-])c1.[Th+4]`, the GI50 with CCRF-CEM leukemia is 2.52 µM. Further, the TGI was 49.7 µM with CCRF-CEM leukemia; 35 µM with HCT-116 colon; greater than 100 µM in the assay on HOP-62 NSCLC; greater than 68.9 µM in the assay on HOP-92 NSCLC; 42.1 µM in the assay on M14 melanoma; greater than 100 µM with NCI-H226 lung. Besides, the TGI with OVCAR-3 ovarian was greater than 22 µM; with RPMI-8226 leukemia it was greater than 100 µM; in the assay on SF-268 CNS, greater than 100 µM; in the assay on SNB-75 CNS, greater than 77.7 µM.
